The numbers were not newly measured in PubChem BioAssay AID1259409 (Chemical Carcinogenesis Research Information System (CCRIS), 2018), which cites them from elsewhere.

Values joined by “and” are separate entries in the source; they are usually repeats but may differ in a detail not shown here. Equal entries are not always repeated.

The data set has as its system rodent chemically induced tumor inhibition, incidence and multiplicity. Nature of the data set: CCRIS tumor inhibitor studies. The settings on record: Route [Inhibitor]: ORAL; for tumour outcome (control, treated, inhibition, significance): Promoter: NONE USED; for outcome: Carcinogen: NONE, Strain/Sex: APC/MIN/MALE, Promoter: NONE.

Consider `CN1C(C(=O)Nc2ccccn2)=C(O)c2ccccc2S1(=O)=O`, for which the “tumour outcome (control, treated, inhibition, significance)” value is 10/12 (83%), 4/12 (33%), 60%, p<0.05 (Carcinogen: N-BUTYL-N-(4-HYDROXYBUTYL)NITROSAMINE, 3817-11-6, Dose [Inhibitor]: 0, 0.0075% IN DIET FOR 12 WK BEGINNING POST CARCINOGEN TREATMENT (STUDY DURATION: 20 WK), Species: RAT, Strain/Sex: F344/MALE, Target Tissue: Type of Lesion: URINARY BLADDER: TRANSITIONAL CELL CARCINOMA, Dose [Carcinogen]: 0.05% IN DRINKING WATER FOR 8 WK); 25/63 (40%), 5/69 (7%), 83%, p<0.0001 (Carcinogen: N-BUTYL-N-(4-HYDROXYBUTYL)NITROSAMINE, 3817-11-6, Dose [Inhibitor]: 0, 15 MG/KG DIET BEGINNING 1 WK PRIOR TO CARCINOGEN TREATMENT AND CONTINUING FOR DURATION OF STUDY (STUDY DURATION: 180, Species: MOUSE, Strain/Sex: BDF/MALE, Target Tissue: Type of Lesion: BLADDER: CARCINOMA, Dose [Carcinogen]: 7.5 MG IN 0.1 ML OF ETHANOL:WATER (20:80) 1/WK FOR 8 WK); 28/65 (43%), 7/56 (13%), 70%, p<0.001 (Carcinogen: N-BUTYL-N-(4-HYDROXYBUTYL)NITROSAMINE, 3817-11-6, Dose [Inhibitor]: 0, 30 MG/KG DIET BEGINNING 1 WK PRIOR TO CARCINOGEN TREATMENT AND CONTINUING FOR DURATION OF STUDY (STUDY DURATION: 180, Species: MOUSE, Strain/Sex: BDF/MALE, Target Tissue: Type of Lesion: BLADDER: CARCINOMA, Dose [Carcinogen]: 7.5 MG IN 0.1 ML OF ETHANOL:WATER (20:80) 1/WK FOR 8 WK); 18/20 (90%), 3/19 (16%), 82%, p<0.0001 (Carcinogen: N-BUTYL-N-(4-HYDROXYBUTYL)NITROSAMINE, 3817-11-6, Dose [Inhibitor]: 0, 75 PPM IN DIET FOR 12 WK BEGINNING POST CARCINOGEN TREATMENT (STUDY DURATION: 20 WK), Species: RAT, Strain/Sex: F344/MALE, Target Tissue: Type of Lesion: URINARY BLADDER: TRANSITIONAL CELL CARCINOMA, Dose [Carcinogen]: 0.05% IN DRINKING WATER FOR 8 WK); 9/9 (100%), 5/10 (50%), 50%, not calculated and 9/9 (100%), 3/9 (33%), 67%, not calculated (Carcinogen: N-METHYL-N-NITROSOUREA, 684-93-5, Dose [Inhibitor]: 130 MG/KG DIET DAILY STARTING 7 D AFTER LAST CARCINOGEN TREATMENT AND CONTINUING FOR 19 WK (STUDY DURATION: 21 WK), Species: RAT, Strain/Sex: SPRAGUE-DAWLEY/MALE, Target Tissue: Type of Lesion: INTESTINES: TUMOR, Dose [Carcinogen]: 0.8% IN 0.5 ML WATER 3 TIMES AT 2 D INTERVALS); 9/9 (100%), 3/9 (33%), 67%, not calculated (Carcinogen: N-METHYLNITROSOUREA, 684-93-5, Dose [Inhibitor]: 0, 130 MG/KG VEGETABLE DIET (2.5 MG/D) BEGINNING 7 D POST LAST CARCINOGEN TREATMENT AND CONTINUING FOR STUDY DURATION (S, Species: RAT, Strain/Sex: CD-1/MALE, Target Tissue: Type of Lesion: INTESTINE: TUMOR, Dose [Carcinogen]: 0.5 ML OF 0.8% WATER SOLUTION 1/2 D FOR 6 D). Moreover, the outcome by setting is: (Dose [Inhibitor]: 12 PPM IN DIET FOR 2 MONTHS (STUDY DURATION: 2 MONTHS), Species: MOUSE, Target Tissue: Type of Lesion: DISTAL SMALL INTESTINE: TUMOR) 10.38, 5.47, 47%, p<0.01; (Dose [Inhibitor]: 12 PPM IN DIET FOR 2 MONTHS (STUDY DURATION: 2 MONTHS), Species: MOUSE, Target Tissue: Type of Lesion: MIDDLE SMALL INTESTINE: TUMOR) 23.75, 16.20, 32%, not significant; (Dose [Inhibitor]: 12 PPM IN DIET FOR 2 MONTHS (STUDY DURATION: 2 MONTHS), Species: MOUSE, Target Tissue: Type of Lesion: PROXIMAL SMALL INTESTINE: TUMOR) 7.63, 14.80, -94%, p<0.01; (Dose [Inhibitor]: 25 PPM IN DIET FOR 2 MONTHS (STUDY DURATION: 2 MONTHS), Species: MOUSE, Target Tissue: Type of Lesion: DISTAL SMALL INTESTINE: TUMOR) 10.38, 2.50, 76%, p<0.001; (Dose [Inhibitor]: 25 PPM IN DIET FOR 2 MONTHS (STUDY DURATION: 2 MONTHS), Species: MOUSE, Target Tissue: Type of Lesion: MIDDLE SMALL INTESTINE: TUMOR) 23.75, 10.93, 38%, p<0.001; (Dose [Inhibitor]: 50 PPM IN DIET FOR 2 MONTHS (STUDY DURATION: 2 MONTHS), Species: MOUSE, Target Tissue: Type of Lesion: DISTAL SMALL INTESTINE: TUMOR) 10.38, 2.60, 75%, p<0.001. For the same compound, the outcome is on record as 23.75, 14.73, 38%, p<0.05 (Dose [Inhibitor]: 50 PPM IN DIET FOR 2 MONTHS (STUDY DURATION: 2 MONTHS), Species: MOUSE, Target Tissue: Type of Lesion: MIDDLE SMALL INTESTINE: TUMOR); 10.38, 1.60, 85%, p<0.001 (Dose [Inhibitor]: 100 PPM IN DIET FOR 2 MONTHS (STUDY DURATION: 2 MONTHS), Species: MOUSE, Target Tissue: Type of Lesion: DISTAL SMALL INTESTINE: TUMOR); 23.75, 10.40, 56%, p<0.001 (Dose [Inhibitor]: 100 PPM IN DIET FOR 2 MONTHS (STUDY DURATION: 2 MONTHS), Species: MOUSE, Target Tissue: Type of Lesion: MIDDLE SMALL INTESTINE: TUMOR).
